The text below walks through data of patent US20250368633A1, “AZEPINE FUSED RING COMPOUND AS RIPK1 INHIBITOR AND USE THEREOF” (ARTIVILA BIOPHARMA, priority 2022, published 2025).

The subject of one assay is U937 cells. Put plainly: EC50 of necroptosis inhibition in U937 cells (TSZ-induced, CellTiter-Glo). The assay is classed as cell-based. The note with it: Homo sapiens, U-937; TSZ (hTNF-α, SM-164, Z-VAD-FMK) 20 hours; 10 concentration points; read-out: EC50 intervals of necroptosis inhibition in U937 cells. A digest of the protocol: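 Luminescent ATP readout (CellTiter-Glo) after 20 h gave viability of TSZ-challenged U937 cells; compounds were added 15 min ahead of TNF-α/SM-164/Z-VAD-FMK. EC50 derived by variable-slope nonlinear regression of inhibition relative to no-TSZ and TSZ-alone controls.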
(In general: ATP-based viability assays read luminescence as a measure of living cells.)

The next assay addresses T1, RIPK1 kinase (Homo sapiens, UniProt Q13546).
T1 construct: purchased Promega VA7593
T1 sequence (Q13546 1-671): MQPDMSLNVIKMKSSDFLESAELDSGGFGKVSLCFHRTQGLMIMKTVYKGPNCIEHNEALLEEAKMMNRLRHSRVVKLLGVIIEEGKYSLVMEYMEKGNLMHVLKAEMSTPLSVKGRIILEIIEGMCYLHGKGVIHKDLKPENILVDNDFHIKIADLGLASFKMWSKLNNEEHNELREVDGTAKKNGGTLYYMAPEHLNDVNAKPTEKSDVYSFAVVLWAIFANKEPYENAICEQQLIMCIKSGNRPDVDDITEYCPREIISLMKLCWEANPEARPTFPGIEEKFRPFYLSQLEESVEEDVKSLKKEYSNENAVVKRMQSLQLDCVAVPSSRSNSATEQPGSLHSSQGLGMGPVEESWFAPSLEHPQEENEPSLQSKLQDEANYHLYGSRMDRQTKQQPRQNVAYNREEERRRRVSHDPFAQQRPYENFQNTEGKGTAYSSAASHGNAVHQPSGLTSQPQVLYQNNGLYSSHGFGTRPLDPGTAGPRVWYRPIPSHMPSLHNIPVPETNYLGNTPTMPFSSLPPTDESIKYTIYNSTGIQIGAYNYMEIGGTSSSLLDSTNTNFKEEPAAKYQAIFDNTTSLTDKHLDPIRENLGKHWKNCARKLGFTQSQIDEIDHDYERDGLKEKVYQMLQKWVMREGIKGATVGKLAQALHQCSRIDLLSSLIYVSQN
The experiment in a line: In vitro RIPK1 kinase activity IC50 assay (ADP-Glo). The note with it: ATP 10 μM; MBP substrate 100 μg/mL; 8 concentration points; read-out: IC50 range of compounds for RIPK1 kinase activity. The format is biochemical. The essentials: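 Human RIPK1 preincubated 15 min at room temperature with compound (8-point 1:5 dilution series, 1% DMSO in kinase buffer D). Reaction then ran 1 h with 10 μM ATP and 100 μg/mL MBP substrate; ADP measured by ADP-Glo luminescence, IC50 from four-parameter nonlinear fit.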
For orientation: In ADP-Glo the light output rises with the ADP produced.

The structures appear in SMILES notation. Where only a bound is given, the exact number is not on record here.

The term EC50 denotes the concentration that produces a half-maximal response. Broadly, the IC50 is the concentration needed to halve the response being measured.

With `CN1C(=O)[C@@H](NC(=O)C(=O)NCCc2ccccc2)COc2ccc(C#CCN3CCOCC3)cc21` [Example 48, (S)—N^1-(5-methyl-7-(3-morpholinoprop-1-yn-1-yl)-4-oxo-2,3,4,5-tetrahydrobenzo[b][1,4]oxazepin-3-yl)-N^2-phenethyloxalamide], in the assay on U937 cells, the EC50 was less than 0.1 µM. At RIPK1 kinase, the IC50 is less than 0.1 µM.

As for `CN1C(=O)[C@@H](NC(=O)C(=O)NCCc2ccccc2)COc2ccc(C#CCCN)cc21` [Example 50, (S)—N^1-(7-(4-aminobut-1-yn-1-yl)-5-methyl-4-oxo-2,3,4,5-tetrahydrobenzo[b][1,4]oxazepin-3-yl)-N^2-phenethyloxalamide], the EC50 with U937 cells was less than 0.1 µM. In addition, the IC50 on RIPK1 kinase is less than 0.1 µM.

As to `CN1C(=O)[C@@H](NC(=O)C(=O)NCCc2ccccc2)COc2ccc(C#CCCNS(C)(=O)=O)cc21` [Example 51, (S)—N^1-(5-methyl-7-(4-(methylsulfonamido)but-1-yn-1-yl)-4-oxo-2,3,4,5-tetrahydrobenzo[b][1,4]oxazepin-3-yl)-N^2-phenethyloxalamide], the EC50 in the assay with U937 cells is less than 0.1 µM. Moreover, the IC50 on RIPK1 kinase was less than 0.1 µM.

Take `COCC#Cc1ccc2c(c1)N(C)C(=O)[C@@H](NC(=O)C(=O)NCCc1ccccc1)CO2` [Example 52, (S)—N^1-(7-(3-methoxyprop-1-yn-1-yl)-5-methyl-4-oxo-2,3,4,5-tetrahydrobenzo[b][1,4]oxazepin-3-yl)-N^2-phenethyloxalamide]: in the assay with U937 cells, the EC50 was less than 0.1 µM. In addition, on RIPK1 kinase, the IC50 was less than 0.1 µM.

Take `CN1C(=O)C(NC(=O)C(=O)NCCc2ccccc2)CCc2ccc(Br)cc21` (centres unmarked) [Example 61, N^1-(8-bromo-1-methyl-2-oxo-2,3,4,5-tetrahydro-1H-benzo[b]azepin-3-yl)-N^2-phenethyloxalamide]: the EC50 in the assay on U937 cells was less than 0.1 µM. Besides, the IC50 at RIPK1 kinase is less than 0.1 µM.

For `CN1C(=O)C(NC(=O)C(=O)NCCc2ccccc2)CCc2ccc(C#CC3CC3)cc21` (centres unmarked) [Example 62, N^1-(8-(cyclopropylethynyl)-1-methyl-2-oxo-2,3,4,5-tetrahydro-1H-benzo[b]azepin-3-yl)-N^2-phenethyloxalamide], the EC50 in the assay with U937 cells is less than 0.1 µM. Further, on RIPK1 kinase, the IC50 is less than 0.1 µM.

`CN1C(=O)C(NC(=O)C(=O)NCCc2ccccc2)CCc2ccc(C#CCCO)cc21` (centres unmarked) [Example 65, N^1-(8-(4-hydroxybut-1-yn-1-yl)-1-methyl-2-oxo-2,3,4,5-tetrahydro-1H-benzo[b]azepin-3-yl)-N^2-phenethyloxalamide]: the EC50 in the assay on U937 cells was less than 0.1 µM. In addition, on RIPK1 kinase, the IC50 was less than 0.1 µM.

For `CN1C(=O)C(NC(=O)C(=O)NCCc2ccccc2)CCc2ccc(C#CC3CCNCC3)cc21` (centres unmarked) [Example 66, N^1-(1-methyl-2-oxo-8-(piperidin-4-ylethynyl)-2,3,4,5-tetrahydro-1H-benzo[b]azepin-3-yl)-N^2-phenethyloxalamide], the EC50 in the assay on U937 cells was less than 0.1 µM. For the same compound, on RIPK1 kinase, the IC50 is less than 0.1 µM.

For the compound `CN1C(=O)[C@@H](NC(=O)C(=O)NCCc2ccccc2)COc2ccc(C#CC3CCN(CC#N)CC3)cc21` [Example 74, (S)—N^1-(7-((1-(cyanomethyl)piperidin-4-yl)ethynyl)-5-methyl-4-oxo-2,3,4,5-tetrahydrobenzo[b][1, 4]oxazepin-3-yl)-N^2-phenethyloxalamide], the EC50 with U937 cells is less than 0.1 µM. Further, the IC50 at RIPK1 kinase is less than 0.1 µM.

For `CN1C(=O)[C@@H](NC(=O)C(=O)NCCc2ccccc2)COc2ccc(C#CC3COC3)cc21` [Example 76, (S)—N^1-(5-methyl-7-(oxetan-3-ylethynyl)-4-oxo-2,3,4,5-tetrahydrobenzo[b][1,4]oxazepin-3-yl)-N^2-phenethyloxalamide], the EC50 with U937 cells was less than 0.1 µM. In addition, the IC50 at RIPK1 kinase was less than 0.1 µM.

`CN1C(=O)[C@H](NC(=O)C(=O)NCCc2ccccc2)COc2ccc(C#CC3(O)COC3)cc21` [Example 77, (R)—N^1-(7-((3-hydroxyoxetan-3-yl)ethynyl)-5-methyl-4-oxo-2,3,4,5-tetrahydrobenzo[b][1,4]oxazepin-3-yl)-N^2-phenethyloxalamide]: the EC50 in the assay on U937 cells is less than 0.1 µM. On RIPK1 kinase, the IC50 is less than 0.1 µM.

Turning to `COC1(C#Cc2ccc3c(c2)N(C)C(=O)[C@@H](NC(=O)C(=O)NCCc2ccccc2)CO3)COC1` [Example 78, (S)—N^1-(7-((3-methoxyoxetan-3-yl)ethynyl)-5-methyl-4-oxo-2,3,4,5-tetrahydrobenzo[b][1,4]oxazepin-3-yl)-N^2-phenethyloxalamide], the concentration for a half-maximal effect (EC50) in the assay with U937 cells is less than 0.1 µM. Also, the IC50 at RIPK1 kinase was less than 0.1 µM.

Turning to `CN1C(=O)[C@@H](NC(=O)C(=O)NCCc2ccccc2)COc2ccc(C#CCC3(O)COC3)cc21` [Example 79, (S)—N^1-(7-(3-(3-hydroxyoxetan-3-yl)prop-1-yn-1-yl)-5-methyl-4-oxo-2,3,4,5-tetrahydrobenzo[b][1,4]oxazepin-3-yl)-N^2-phenethyloxalamide], the EC50 in the assay on U937 cells is less than 0.1 µM. The IC50 at RIPK1 kinase was less than 0.1 µM.

On to `CN1C(=O)[C@@H](NC(=O)C(=O)NCCc2ccccc2)COc2ccc(C#CC3(O)CCOC3)cc21` (stereo partly drawn) [Example 80, N^1-((3S)-7-((3-hydroxytetrahydrofuran-3-yl)ethynyl)-5-methyl-4-oxo-2,3,4,5-tetrahydrobenzo[b][1,4]oxazepin-3-yl)-N^2-phenethyloxalamide], for which, in the assay with U937 cells, the EC50 is less than 0.1 µM. The IC50 at RIPK1 kinase was less than 0.1 µM.

In the case of `CN1C(=O)[C@@H](NC(=O)C(=O)NCCc2ccccc2)COc2ccc(C#CCN3CCC(O)CC3)cc21` [Example 81, (S)—N^1-(7-(3-(4-hydroxypiperidin-1-yl)prop-1-yn-1-yl)-5-methyl-4-oxo-2,3,4,5-tetrahydrobenzo[b][1,4]oxazepin-3-yl)-N^2-phenethyloxalamide], the EC50 in the assay with U937 cells is less than 0.1 µM. Further, the IC50 on RIPK1 kinase was less than 0.1 µM.

`CN1C(=O)[C@@H](NC(=O)C(=O)NCCc2ccccc2)COc2ccc(C#CCN3C(=O)CCC3=O)cc21` [Example 84, (S)—N^1-(7-(3-(2,5-dioxopyrrolidin-1-yl)prop-1-yn-1-yl)-5-methyl-4-oxo-2,3,4,5-tetrahydrobenzo[b][1,4]oxazepin-3-yl)-N^2-phenethyloxalamide]: the EC50 with U937 cells was less than 0.1 µM. In addition, the IC50 at RIPK1 kinase is less than 0.1 µM.

For `CN1C(=O)[C@@H](NC(=O)C(=O)NCCc2ccccc2)COc2ccc(C#CCN3CCNC(=O)C3)cc21` [Example 85, (S)—N^1-(5-methyl-4-oxo-7-(3-(3-oxopiperazin-1-yl)prop-1-yn-1-yl)-2,3,4,5-tetrahydrobenzo[b][1, 4]oxazepin-3-yl)-N^2-phenethyloxalamide], in the assay with U937 cells, the EC50 is less than 0.1 µM. The IC50 at RIPK1 kinase was less than 0.1 µM.

Turning to `CN1C(=O)[C@@H](NC(=O)C(=O)NCCc2ccccc2)COc2ccc(C#CCNC(=O)OC(C)(C)C)cc21` [Example 86, tert-butyl (S)-(3-(5-methyl-4-oxo-3-(2-oxo-2-(phenethylamino)acetamido)-2,3,4,5-tetrahydrobenzo[b][1,4]oxazepin-7-yl)prop-2-yn-1-yl)carbamate], the EC50 in the assay on U937 cells is less than 0.1 µM. Besides, at RIPK1 kinase, the IC50 was less than 0.1 µM.

Take `CN1C(=O)[C@@H](NC(=O)C(=O)NCCc2ccccc2)COc2ccc(C#CCNC(=O)CO)cc21` [Example 88, (S)—N^1-(7-(3-(2-hydroxyacetamido)prop-1-yn-1-yl)-5-methyl-4-oxo-2,3,4,5-tetrahydrobenzo[b][1, 4]oxazepin-3-yl)-N^2-phenethyloxalamide]: the EC50 in the assay on U937 cells was less than 0.1 µM. In addition, the IC50 on RIPK1 kinase is less than 0.1 µM.

`C=CC(=O)NCC#Cc1ccc2c(c1)N(C)C(=O)[C@@H](NC(=O)C(=O)NCCc1ccccc1)CO2` [Example 89, (S)—N^1-(7-(3-acrylamidoprop-1-yn-1-yl)-5-methyl-4-oxo-2,3,4,5-tetrahydrobenzo[b][1,4]oxazepin-3-yl)-N^2-phenethyloxalamide]: the EC50 in the assay with U937 cells is less than 0.1 µM. Also, the IC50 on RIPK1 kinase is less than 0.1 µM.

Consider `CN1C(=O)[C@@H](NC(=O)C(=O)NCCc2ccccc2)COc2ccc(C#CC3CN(C=O)C3)cc21` [Example 91, (S)—N^1-(7-((1-formylazetidin-3-yl)ethynyl)-5-methyl-4-oxo-2,3,4,5-tetrahydrobenzo[b][1,4]oxazepin-3-yl)-N^2-phenethyloxalamide], for which the EC50 with U937 cells is less than 0.1 µM. Besides, the IC50 at RIPK1 kinase is less than 0.1 µM.

On to `CN1C(=O)[C@@H](NC(=O)C(=O)NCCc2ccccc2)COc2ccc(C#CC3(O)CN(C=O)C3)cc21` [Example 92, (S)—N^1-(7-((1-formyl-3-hydroxyazetidin-3-yl)ethynyl)-5-methyl-4-oxo-2,3,4,5-tetrahydrobenzo[b][1,4]oxazepin-3-yl)-N^2-phenethyloxalamide], for which the EC50 in the assay with U937 cells was less than 0.1 µM. In addition, the IC50 at RIPK1 kinase was less than 0.1 µM.
